{"source": "patent US12213959B2", "about": "“Use of 3-O-sulfamoyloxy-7β-methyl-d-homo-6-oxaestra-1,3,5(10),8(9)-tetraen-17a-one to treat breast cancer” (priority 2018, dated 2025)", "key": {"uterine body": {"system": "uterine body", "test": "Hormonal effects on the uterine body (uterine weight)", "assay_type": "in vivo, mice", "settings": "for Uterine weight: end of observation", "protocol": "The hormonal effects of the medicament on the uterine body was analyzed by comparing the uterine weight without uterine horns at the end of the observation period (Table 13)."}, "[1]": {"test": "Acute oral toxicity, OECD 423 test", "assay_type": "in vivo", "settings": "for Body weight of individual mice: in g (unit assumed)", "protocol": "12 female mice were used in the experiment.\nThe dosage form for the administration was prepared ex tempore.\nNo deaths were detected either.\nFurther the observations were made once per day.\nThe medicament was administered in 2 steps with a break of 3 hours in a volume of 0.1 ml per 10 g of a body weight per step at the concentration of […], because the suspension in oil is thicker at higher concentrations and precludes the medicament to be administered through a gavage. […] Regardless of the group the width of the palpebral fissure of the animals was almost unchanged during the entire observation period. No pathological discharges from the eyes were detected. The nose was pink, moderately moist without pathological discharges. The fur of all mice was neat and shiny without bald spots. A 1% decrease of the animals body weight was registered on Day 2 and a 6% weight decrease on Day 7 from the initial weight (Table 3)."}, "[2]": {"settings": "300 mg/kg, Day 1 (before administration)"}, "[3]": {"settings": "2000 mg/kg, Day 1 (before administration)"}}, "note": "“And” between values parts separate entries of the source, which are not always exact repeats. Equal values may be shown once.", "data": [{"compound": "C[C@H]1Oc2cc(OS(N)(=O)=O)ccc2C2=C1[C@@H]1CCCC(=O)[C@@]1(C)CC2", "note": "[medicament, 3-O-sulfamoyloxy-7β-methyl-O-homo-6-oxaestra-1,3,5(10),8(9)-tetraen]", "values": [{"measurement": "uterine weight differences as compared to the control group", "setting": "uterine body; dose range from 2.0 to 100 mg/kg", "value": "No statistically significant differences"}, {"measurement": "Uterine weight", "setting": "uterine body; medicament 2 mg/kg, All mice", "value": "37 ± 6", "unit": "MI"}, {"measurement": "Uterine weight", "setting": "uterine body; medicament 2 mg/kg, estrous cycle phase D", "value": "24 ± 7", "unit": "MI"}, {"measurement": "Uterine weight", "setting": "uterine body; medicament 2 mg/kg, estrous cycle phase E", "value": "53 ± 3", "unit": "MI"}, {"measurement": "Uterine weight", "setting": "uterine body; medicament 20 mg/kg, All mice", "value": "50 ± 4", "unit": "MI"}, {"measurement": "Uterine weight", "setting": "uterine body; medicament 20 mg/kg, estrous cycle phase D", "value": "45 ± 13", "unit": "MI"}, {"measurement": "Uterine weight", "setting": "uterine body; medicament 20 mg/kg, estrous cycle phase E", "value": "53 ± 4", "unit": "MI"}, {"measurement": "Uterine weight", "setting": "uterine body; medicament 100 mg/kg, All mice", "value": "52 ± 5", "unit": "MI"}, {"measurement": "Uterine weight", "setting": "uterine body; medicament 100 mg/kg, estrous cycle phase D", "value": "34 ± 13", "unit": "MI"}, {"measurement": "Uterine weight", "setting": "uterine body; medicament 100 mg/kg, estrous cycle phase E", "value": "56 ± 5", "unit": "MI"}, {"measurement": "uterotropic activity", "setting": "uterine body; mouse, in vivo", "value": "no uterotropic activity"}, {"measurement": "visual signs of intoxication", "setting": "[1]; 300 mg/kg i.g., entire observation period", "value": "None of the animals exhibited visual signs of intoxication"}, {"measurement": "Average body weight", "setting": "[1]; [2]", "value": 27.4, "unit": "g"}, {"measurement": "Body weight of individual mice", "setting": "[1]; [2]", "value": "26.4 and 29.6 and 26.0 and 27.0 and 28.0 and 27.5"}, {"measurement": "Average body weight", "setting": "[1]; 300 mg/kg, Day 2", "value": 27.1, "unit": "g"}, {"measurement": "Average body weight, % from baseline", "setting": "[1]; 300 mg/kg, Day 2", "value": "−1", "unit": "%"}, {"measurement": "average body weight decrease", "setting": "[1]; 300 mg/kg, Day 2", "value": 1, "unit": "%"}, {"measurement": "Body weight of individual mice", "setting": "[1]; 300 mg/kg, Day 2", "value": "26.8 and 24.2 and 26.5 and 25.2 and 27.3 and 27.6"}, {"measurement": "Average body weight", "setting": "[1]; 300 mg/kg, Day 7", "value": 27.6, "unit": "g"}, {"measurement": "Average body weight, % from baseline", "setting": "[1]; 300 mg/kg, Day 7", "value": 1, "unit": "%"}, {"measurement": "Body weight of individual mice", "setting": "[1]; 300 mg/kg, Day 7", "value": "27.0 and 29.4 and 27.4 and 25.6 and 28.2 and 28.0"}, {"measurement": "Average body weight", "setting": "[1]; 300 mg/kg, Day 14", "value": 28.1, "unit": "g"}, {"measurement": "Average body weight, % from baseline", "setting": "[1]; 300 mg/kg, Day 14", "value": 2, "unit": "%"}, {"measurement": "Body weight of individual mice", "setting": "[1]; 300 mg/kg, Day 14", "value": "27.0 and 29.8 and 29.3 and 26.0 and 27.9 and 28.4"}, {"measurement": "clinical signs of intoxication", "setting": "[1]; 2000 mg/kg i.g.", "value": "No clinical signs of intoxication were observed"}, {"measurement": "Average body weight", "setting": "[1]; [3]", "value": 26.2, "unit": "g"}, {"measurement": "Body weight of individual mice", "setting": "[1]; [3]", "value": "28.4 and 25.0 and 26.6 and 24.0 and 26.7 and 26.4"}, {"measurement": "Average body weight", "setting": "[1]; 2000 mg/kg, Day 2", "value": 26.1, "unit": "g"}, {"measurement": "Average body weight, % from baseline", "setting": "[1]; 2000 mg/kg, Day 2", "value": "−1", "unit": "%"}, {"measurement": "decrease of body weight from the initial weight", "setting": "[1]; 2000 mg/kg, Day 2", "value": 1, "unit": "%"}, {"measurement": "Body weight of individual mice", "setting": "[1]; 2000 mg/kg, Day 2", "value": "27.9 and 25.5 and 26.5 and 25.2 and 27.3 and 27.0"}, {"measurement": "Average body weight", "setting": "[1]; 2000 mg/kg, Day 7", "value": 24.7, "unit": "g"}, {"measurement": "Average body weight, % from baseline", "setting": "[1]; 2000 mg/kg, Day 7", "value": "−6", "unit": "%"}, {"measurement": "decrease of body weight from the initial weight", "setting": "[1]; 2000 mg/kg, Day 7", "value": 6, "unit": "%"}, {"measurement": "Body weight of individual mice", "setting": "[1]; 2000 mg/kg, Day 7", "value": "24.7 and 24.5 and 25.1 and 25.6 and 28.2 and 25.7"}, {"measurement": "Average body weight", "setting": "[1]; 2000 mg/kg, Day 14", "value": 26.3, "unit": "g"}, {"measurement": "Body weight of individual mice", "setting": "[1]; 2000 mg/kg, Day 14", "value": "28.3 and 24.9 and 26.4 and 26.0 and 27.9 and 27.0"}, {"measurement": "macroscopic changes of internal organs at autopsy", "setting": "[1]; Day 15", "value": "no changes of the internal organs were detected"}, {"measurement": "hazard category", "setting": "[1]; OECD 423", "value": "5th or unclassified category and 5th or non-classified category"}, {"measurement": "hazard category", "setting": "[1]; OECD 423, listed as anti-cancer agent", "value": 5, "unit": "th hazard category"}, {"measurement": "LD50 at 14 days", "setting": "[1]; female, FVB transgenic for HER-2/neu, mouse, in vivo, po, oral (i.g.), mice, OECD 423", "value": "≥ 5000", "unit": "mg/kg"}, {"measurement": "LD50", "setting": "[1]; oral (i.g.), mice, OECD 423, listed as anti-cancer agent", "value": "> 5000", "unit": "mg/kg"}]}]}
